Experimental data published in PMC6199744, “Development of Chemical Proteomics for the Folateome and Analysis of the Kinetoplastid Folateome” (ACS Infectious Diseases, 2018).
Read-outs that look alike come from different tables or passages of the source.

How the values were obtained:
Assay type in all cases: binding
[1] = molecular target: T1, HeLa cell extract proteins (Homo sapiens, UniProt Q9H479)
T1 construct: endogenous in cells; host or cells: HeLa cell extract
T1 sequence (Q9H479 1-309): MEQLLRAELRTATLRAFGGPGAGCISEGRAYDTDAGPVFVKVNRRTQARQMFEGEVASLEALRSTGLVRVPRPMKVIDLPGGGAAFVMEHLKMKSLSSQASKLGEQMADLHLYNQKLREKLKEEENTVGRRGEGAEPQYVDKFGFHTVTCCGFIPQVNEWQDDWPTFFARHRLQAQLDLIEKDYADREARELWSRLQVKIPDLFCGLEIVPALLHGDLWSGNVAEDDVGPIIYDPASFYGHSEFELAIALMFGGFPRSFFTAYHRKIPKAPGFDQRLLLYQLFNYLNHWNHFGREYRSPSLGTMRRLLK

[2] = molecular target: T2, HeLa cell extract proteins (Homo sapiens, UniProt P56589)
T2 construct: endogenous in cells; host or cells: HeLa cell extract
T2 sequence (P56589 1-373): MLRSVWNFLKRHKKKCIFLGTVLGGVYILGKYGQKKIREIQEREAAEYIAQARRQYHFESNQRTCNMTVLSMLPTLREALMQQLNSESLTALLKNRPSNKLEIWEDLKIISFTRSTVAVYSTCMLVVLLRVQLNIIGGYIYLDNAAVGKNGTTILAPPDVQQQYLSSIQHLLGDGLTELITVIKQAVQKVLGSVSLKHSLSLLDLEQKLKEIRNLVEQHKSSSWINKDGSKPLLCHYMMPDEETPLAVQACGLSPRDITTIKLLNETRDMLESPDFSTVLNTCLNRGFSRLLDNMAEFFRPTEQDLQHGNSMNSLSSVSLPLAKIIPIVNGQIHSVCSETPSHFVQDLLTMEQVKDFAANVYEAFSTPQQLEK

[3] = molecular target: T3, HeLa cell extract proteins (Homo sapiens, UniProt Q9GZT8)
T3 construct: endogenous in cells; host or cells: HeLa cell extract
T3 sequence (Q9GZT8 1-377): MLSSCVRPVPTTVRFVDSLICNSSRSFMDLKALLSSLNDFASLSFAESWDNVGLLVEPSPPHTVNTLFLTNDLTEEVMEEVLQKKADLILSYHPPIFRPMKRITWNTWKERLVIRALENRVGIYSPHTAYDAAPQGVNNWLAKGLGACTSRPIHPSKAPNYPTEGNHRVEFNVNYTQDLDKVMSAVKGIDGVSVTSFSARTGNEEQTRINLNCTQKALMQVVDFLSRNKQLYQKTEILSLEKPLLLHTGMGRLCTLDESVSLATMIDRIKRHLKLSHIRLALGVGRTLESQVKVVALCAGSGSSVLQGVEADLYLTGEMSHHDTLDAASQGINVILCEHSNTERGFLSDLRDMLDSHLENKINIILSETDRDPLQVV

[4] = molecular target: T4, HeLa cell extract proteins (Homo sapiens, UniProt Q96JN8)
T4 construct: endogenous in cells; host or cells: HeLa cell extract
T4 sequence (Q96JN8 whole entry): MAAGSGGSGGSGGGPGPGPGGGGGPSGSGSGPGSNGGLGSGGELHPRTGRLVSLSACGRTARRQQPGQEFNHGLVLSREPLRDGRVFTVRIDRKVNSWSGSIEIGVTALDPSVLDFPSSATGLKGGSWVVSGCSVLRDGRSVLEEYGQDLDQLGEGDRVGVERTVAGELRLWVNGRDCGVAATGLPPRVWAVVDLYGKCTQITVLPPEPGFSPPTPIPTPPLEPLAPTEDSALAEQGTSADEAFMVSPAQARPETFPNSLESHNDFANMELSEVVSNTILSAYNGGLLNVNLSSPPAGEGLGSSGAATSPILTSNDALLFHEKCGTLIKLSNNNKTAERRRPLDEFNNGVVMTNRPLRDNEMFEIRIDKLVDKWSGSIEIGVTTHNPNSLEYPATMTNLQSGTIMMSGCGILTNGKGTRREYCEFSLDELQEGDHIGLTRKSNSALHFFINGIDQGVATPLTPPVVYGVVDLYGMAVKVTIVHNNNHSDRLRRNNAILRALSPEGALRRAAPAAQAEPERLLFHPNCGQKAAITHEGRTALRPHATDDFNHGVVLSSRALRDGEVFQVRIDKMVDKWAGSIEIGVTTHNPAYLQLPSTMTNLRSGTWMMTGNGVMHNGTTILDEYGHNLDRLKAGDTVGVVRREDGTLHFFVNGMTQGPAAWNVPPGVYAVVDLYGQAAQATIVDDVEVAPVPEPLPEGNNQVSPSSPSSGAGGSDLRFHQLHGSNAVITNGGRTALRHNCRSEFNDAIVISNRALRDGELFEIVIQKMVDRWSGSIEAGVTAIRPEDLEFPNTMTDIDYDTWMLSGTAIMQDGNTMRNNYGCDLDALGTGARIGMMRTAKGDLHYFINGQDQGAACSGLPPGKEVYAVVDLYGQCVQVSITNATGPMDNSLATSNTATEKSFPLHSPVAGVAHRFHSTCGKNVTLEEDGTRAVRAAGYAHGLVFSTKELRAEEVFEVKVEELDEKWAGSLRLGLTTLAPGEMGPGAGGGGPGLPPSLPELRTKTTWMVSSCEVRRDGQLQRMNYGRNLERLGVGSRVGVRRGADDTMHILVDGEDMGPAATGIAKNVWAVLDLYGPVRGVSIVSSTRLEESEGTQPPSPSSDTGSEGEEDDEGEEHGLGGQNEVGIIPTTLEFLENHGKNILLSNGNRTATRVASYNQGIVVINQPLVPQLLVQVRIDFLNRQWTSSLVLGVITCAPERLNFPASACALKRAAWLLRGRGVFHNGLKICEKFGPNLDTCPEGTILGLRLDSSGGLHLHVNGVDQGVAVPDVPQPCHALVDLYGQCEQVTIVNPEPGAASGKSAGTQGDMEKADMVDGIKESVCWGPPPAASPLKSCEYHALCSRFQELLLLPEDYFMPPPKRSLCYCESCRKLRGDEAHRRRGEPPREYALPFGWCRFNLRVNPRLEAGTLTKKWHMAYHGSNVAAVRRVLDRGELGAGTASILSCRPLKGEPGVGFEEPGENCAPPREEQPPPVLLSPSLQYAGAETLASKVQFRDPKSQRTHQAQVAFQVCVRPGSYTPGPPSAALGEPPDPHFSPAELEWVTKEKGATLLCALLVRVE

[5] = molecular target: T5, HeLa cell extract proteins (Homo sapiens, UniProt P08865)
T5 construct: endogenous in cells; host or cells: HeLa cell extract

[6] = molecular target: T6, HeLa cell extract proteins (Homo sapiens, UniProt P54136)
T6 construct: endogenous in cells; host or cells: HeLa cell extract
T6 sequence (P54136 1-660): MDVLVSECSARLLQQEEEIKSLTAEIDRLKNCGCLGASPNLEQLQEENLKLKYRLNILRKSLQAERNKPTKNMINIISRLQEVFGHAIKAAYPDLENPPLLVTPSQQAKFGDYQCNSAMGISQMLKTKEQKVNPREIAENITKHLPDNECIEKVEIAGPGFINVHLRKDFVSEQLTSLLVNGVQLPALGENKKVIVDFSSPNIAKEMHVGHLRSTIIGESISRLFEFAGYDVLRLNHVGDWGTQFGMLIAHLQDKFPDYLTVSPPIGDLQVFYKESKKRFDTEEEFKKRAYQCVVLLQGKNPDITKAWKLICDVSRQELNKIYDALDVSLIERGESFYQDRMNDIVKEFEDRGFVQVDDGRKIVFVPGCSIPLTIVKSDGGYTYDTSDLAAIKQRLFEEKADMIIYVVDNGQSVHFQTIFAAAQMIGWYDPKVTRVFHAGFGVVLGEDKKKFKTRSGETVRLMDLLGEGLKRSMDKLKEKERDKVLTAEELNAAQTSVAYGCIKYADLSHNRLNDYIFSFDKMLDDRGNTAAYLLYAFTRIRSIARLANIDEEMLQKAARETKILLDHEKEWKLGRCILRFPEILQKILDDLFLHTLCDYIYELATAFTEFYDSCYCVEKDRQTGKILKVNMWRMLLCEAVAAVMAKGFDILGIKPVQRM

[7] = molecular target: T7, HeLa cell extract proteins (Homo sapiens, UniProt P11310)
T7 construct: endogenous in cells; host or cells: HeLa cell extract
T7 sequence (P11310 26-421): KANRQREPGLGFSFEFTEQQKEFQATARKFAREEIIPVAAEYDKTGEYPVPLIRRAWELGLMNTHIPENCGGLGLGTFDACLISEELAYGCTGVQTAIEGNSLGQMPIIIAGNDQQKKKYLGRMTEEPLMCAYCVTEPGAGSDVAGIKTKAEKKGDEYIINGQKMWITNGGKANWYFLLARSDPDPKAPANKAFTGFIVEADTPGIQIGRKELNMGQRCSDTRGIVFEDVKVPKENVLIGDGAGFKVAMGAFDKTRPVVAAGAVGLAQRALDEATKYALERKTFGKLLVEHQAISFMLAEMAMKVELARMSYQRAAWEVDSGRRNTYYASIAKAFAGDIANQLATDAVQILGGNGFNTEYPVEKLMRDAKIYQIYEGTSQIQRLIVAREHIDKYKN

[8] = molecular target: T8, HeLa cell extract proteins (Homo sapiens, UniProt Q6YHU6)
T8 construct: endogenous in cells; host or cells: HeLa cell extract
T8 sequence (Q6YHU6 whole entry): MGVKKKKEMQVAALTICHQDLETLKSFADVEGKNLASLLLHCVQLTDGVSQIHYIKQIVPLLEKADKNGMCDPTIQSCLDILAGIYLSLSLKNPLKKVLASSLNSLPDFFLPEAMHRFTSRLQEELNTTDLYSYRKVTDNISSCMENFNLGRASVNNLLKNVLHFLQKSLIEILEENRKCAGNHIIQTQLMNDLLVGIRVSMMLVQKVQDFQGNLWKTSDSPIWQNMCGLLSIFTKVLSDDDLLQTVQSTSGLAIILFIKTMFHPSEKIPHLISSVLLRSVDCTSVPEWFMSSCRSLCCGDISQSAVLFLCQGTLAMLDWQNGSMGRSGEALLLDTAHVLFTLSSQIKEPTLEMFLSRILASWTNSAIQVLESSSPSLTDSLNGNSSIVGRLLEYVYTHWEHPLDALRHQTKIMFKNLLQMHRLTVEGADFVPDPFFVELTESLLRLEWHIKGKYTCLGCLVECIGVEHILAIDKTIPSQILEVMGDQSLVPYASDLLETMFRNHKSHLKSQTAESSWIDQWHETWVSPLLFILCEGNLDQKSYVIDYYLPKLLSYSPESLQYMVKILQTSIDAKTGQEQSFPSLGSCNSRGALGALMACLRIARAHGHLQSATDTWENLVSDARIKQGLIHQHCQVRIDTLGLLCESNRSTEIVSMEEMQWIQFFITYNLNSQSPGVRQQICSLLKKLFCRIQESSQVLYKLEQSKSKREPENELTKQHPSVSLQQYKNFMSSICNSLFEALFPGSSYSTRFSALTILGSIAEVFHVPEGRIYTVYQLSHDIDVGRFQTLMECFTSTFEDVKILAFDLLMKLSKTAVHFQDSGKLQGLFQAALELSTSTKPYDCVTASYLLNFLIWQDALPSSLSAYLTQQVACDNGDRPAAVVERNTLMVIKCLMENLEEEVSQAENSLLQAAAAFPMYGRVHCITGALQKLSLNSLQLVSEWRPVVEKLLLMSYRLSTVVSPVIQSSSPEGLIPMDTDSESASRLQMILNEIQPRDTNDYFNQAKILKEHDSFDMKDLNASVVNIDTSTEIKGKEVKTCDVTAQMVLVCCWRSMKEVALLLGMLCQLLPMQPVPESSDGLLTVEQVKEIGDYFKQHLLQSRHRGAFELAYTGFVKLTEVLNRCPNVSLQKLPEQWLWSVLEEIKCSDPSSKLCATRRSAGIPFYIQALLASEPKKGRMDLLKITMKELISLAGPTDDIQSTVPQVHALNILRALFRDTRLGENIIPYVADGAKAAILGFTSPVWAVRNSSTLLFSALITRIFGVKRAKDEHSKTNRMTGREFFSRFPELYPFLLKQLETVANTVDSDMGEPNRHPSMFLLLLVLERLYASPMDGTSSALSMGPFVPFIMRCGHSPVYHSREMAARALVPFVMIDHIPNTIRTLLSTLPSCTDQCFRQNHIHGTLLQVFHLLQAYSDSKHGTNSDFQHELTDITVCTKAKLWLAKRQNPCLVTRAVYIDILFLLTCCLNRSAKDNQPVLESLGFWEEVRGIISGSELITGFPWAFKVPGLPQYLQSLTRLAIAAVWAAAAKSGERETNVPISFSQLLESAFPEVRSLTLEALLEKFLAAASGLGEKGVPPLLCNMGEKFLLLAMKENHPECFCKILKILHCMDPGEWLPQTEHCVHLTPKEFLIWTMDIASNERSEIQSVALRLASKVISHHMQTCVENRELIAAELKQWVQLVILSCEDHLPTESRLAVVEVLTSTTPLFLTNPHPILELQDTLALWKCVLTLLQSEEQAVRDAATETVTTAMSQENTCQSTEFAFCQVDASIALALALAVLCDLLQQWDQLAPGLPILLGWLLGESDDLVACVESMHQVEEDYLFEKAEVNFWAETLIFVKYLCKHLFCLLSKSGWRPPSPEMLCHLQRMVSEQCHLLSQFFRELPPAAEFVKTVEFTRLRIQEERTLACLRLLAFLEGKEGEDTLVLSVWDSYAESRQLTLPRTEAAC

[9] = molecular target: T9, HeLa cell extract proteins (Homo sapiens, UniProt P26038)
T9 construct: endogenous in cells; host or cells: HeLa cell extract
T9 sequence (P26038 whole entry): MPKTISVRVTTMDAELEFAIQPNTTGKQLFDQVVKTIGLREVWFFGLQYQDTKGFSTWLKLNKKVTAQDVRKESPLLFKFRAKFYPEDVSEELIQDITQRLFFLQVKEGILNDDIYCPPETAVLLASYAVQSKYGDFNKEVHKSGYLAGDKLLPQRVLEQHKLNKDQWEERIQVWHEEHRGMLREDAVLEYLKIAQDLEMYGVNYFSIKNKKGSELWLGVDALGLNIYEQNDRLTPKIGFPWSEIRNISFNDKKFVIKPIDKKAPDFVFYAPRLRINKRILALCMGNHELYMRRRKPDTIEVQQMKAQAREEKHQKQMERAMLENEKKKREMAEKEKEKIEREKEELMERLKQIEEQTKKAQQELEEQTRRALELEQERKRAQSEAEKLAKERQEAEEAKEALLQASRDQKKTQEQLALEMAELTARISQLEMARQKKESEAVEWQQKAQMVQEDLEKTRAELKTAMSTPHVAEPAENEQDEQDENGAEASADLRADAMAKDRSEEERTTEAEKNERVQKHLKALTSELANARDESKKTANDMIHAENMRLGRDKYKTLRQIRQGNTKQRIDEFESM

[10] = molecular target: T10, HeLa cell extract proteins (Homo sapiens, UniProt P07437)
T10 construct: endogenous in cells; host or cells: HeLa cell extract
T10 sequence (P07437 whole entry): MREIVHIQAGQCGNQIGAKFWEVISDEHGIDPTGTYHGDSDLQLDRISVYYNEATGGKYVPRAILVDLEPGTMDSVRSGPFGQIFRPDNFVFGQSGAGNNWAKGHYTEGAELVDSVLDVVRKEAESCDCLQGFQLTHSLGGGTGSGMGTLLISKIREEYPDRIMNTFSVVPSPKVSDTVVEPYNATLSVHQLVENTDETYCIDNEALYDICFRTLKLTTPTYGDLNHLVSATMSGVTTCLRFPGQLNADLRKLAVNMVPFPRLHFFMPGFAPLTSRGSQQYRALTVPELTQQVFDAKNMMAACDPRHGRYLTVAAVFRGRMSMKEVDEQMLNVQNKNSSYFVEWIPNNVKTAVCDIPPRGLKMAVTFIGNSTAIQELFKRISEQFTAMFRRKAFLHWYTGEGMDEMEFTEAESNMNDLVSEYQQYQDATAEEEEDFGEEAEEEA

[11] = molecular target: T11, HeLa cell extract proteins (Homo sapiens, UniProt P61619)
T11 construct: endogenous in cells; host or cells: HeLa cell extract
T11 sequence (P61619 whole entry): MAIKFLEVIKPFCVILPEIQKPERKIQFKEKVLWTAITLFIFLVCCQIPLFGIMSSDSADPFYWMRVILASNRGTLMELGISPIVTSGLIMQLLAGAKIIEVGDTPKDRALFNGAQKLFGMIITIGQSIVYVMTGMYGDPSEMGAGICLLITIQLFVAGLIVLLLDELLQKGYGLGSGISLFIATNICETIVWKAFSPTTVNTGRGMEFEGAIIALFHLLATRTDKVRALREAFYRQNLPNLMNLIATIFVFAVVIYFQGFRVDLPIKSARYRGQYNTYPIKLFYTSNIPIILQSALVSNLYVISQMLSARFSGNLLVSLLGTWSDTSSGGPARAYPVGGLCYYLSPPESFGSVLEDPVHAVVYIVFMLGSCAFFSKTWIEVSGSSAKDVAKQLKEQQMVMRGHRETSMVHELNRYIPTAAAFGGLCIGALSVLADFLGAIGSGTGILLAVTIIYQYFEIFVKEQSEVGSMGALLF

[12] = HeLa, protein FN3K (FRUCTOSAMINE-3-KINASE)
[13] = HeLa, protein ACADM (HY[…] DKFZP686M24262)

Row | Structure (SMILES) | fold changes relative to vehicle control [1, 12] | fold changes relative to vehicle control ([2]; HeLa, captured protein PEX3) | fold changes relative to vehicle control ([3]; protein NIF3L1, HeLa) | fold changes relative to vehicle control ([4]; HeLa, protein KIAA1787) | fold changes relative to vehicle control ([5]; HeLa, protein RPSA) | fold changes relative to vehicle control ([6]; HeLa, captured protein RARS) | fold changes relative to vehicle control ([8]; HeLa, captured protein THADA) | fold changes relative to vehicle control ([9]; HeLa, protein MSN) | fold changes relative to vehicle control ([10]; protein TUBB, HeLa) | fold changes relative to vehicle control ([11]; HeLa, protein SEC61A1) | fold changes relative to vehicle control ([1]; protein FN3K, HeLa) | fold changes relative to vehicle control ([2]; HeLa, protein PEX3) | fold changes relative to vehicle control ([3]; captured protein NIF3L1, HeLa) | fold changes relative to vehicle control ([4]; protein KIAA1787, HeLa) | fold changes relative to vehicle control ([5]; captured protein RPSA, HeLa) | fold changes relative to vehicle control ([6]; protein RARS, HeLa) | fold changes relative to vehicle control ([7]; protein ACADM, HeLa) | fold changes relative to vehicle control ([8]; captured protein THADA, HeLa) | fold changes relative to vehicle control ([9]; protein MSN, HeLa) | fold changes relative to vehicle control ([10]; HeLa, protein TUBB) | other results
1 | Nc1nc2c(c(=O)[nH]1)N(C=O)C(CNc1ccc(C(=O)N[C@@H](CCC(=O)O)C(=O)O)cc1)CN2 (some centres unmarked) [LEU, leucovorin] | 0.93 | 1.02 | 0.95 | 1.16 | 0.87 | 0.97 | 1.06 | 0.93 | 0.91 | 0.99 |  |  |  |  |  |  |  |  |  |  | fold changes relative to vehicle control [7, 13]: 1.16
2 | Nc1nc2[nH]cc(CCc3ccc(C(=O)N[C@@H](CCC(=O)O)C(=O)O)cc3)c2c(=O)[nH]1 [PTX, pemetrexed] |  |  |  |  |  |  |  |  |  |  |  |  |  |  |  |  |  |  |  |  | fold changes relative to vehicle control [1]: 0.88; fold changes relative to vehicle control [2]: 0.95; fold changes relative to vehicle control [3]: 0.9; fold changes relative to vehicle control [4]: 1.07; fold changes relative to vehicle control [5]: 0.9; fold changes relative to vehicle control [6]: 0.93; fold changes relative to vehicle control [7]: 1.3; fold changes relative to vehicle control [8]: 0.98; fold changes relative to vehicle control [9]: 0.97; fold changes relative to vehicle control [10]: 0.84; fold changes relative to vehicle control [11]: 0.98
3 | CCCCCCOc1ccc(Cc2cnc(N)nc2N)cc1 [compound 1] |  |  |  |  |  |  |  |  |  | 1.02 | 0.92 | 0.94 | 0.5 | 1.03 | 0.97 | 0.9 | 1.17 | 1.06 | 1.07 | 0.93 | 
4 | CCCCCCOc1cccc(Cc2cnc(N)nc2N)c1 [compound 2] |  |  |  |  |  |  |  |  |  | 1.01 | 1.06 | 0.93 | 0.97 | 0.98 | 1.11 | 1.19 | 1.75 | 1.16 | 1.81 | 0.82 | 
5 | Nc1nc2cccc(-c3ccccc3)c2n1Cc1ccc(Cl)c(Cl)c1 [compound 3] |  |  |  |  |  |  |  |  |  | 1 | 1.09 | 0.92 | 0.98 | 1.09 | 1.09 | 0.94 | 1 | 1.09 | 0.77 | 1.02 | 
6 | NCCOCCOCC(=O)Nc1nc2ncc(CNc3ccc(C(=O)NC(CCC(=O)O)C(=O)O)cc3)nc2c(=O)[nH]1 (centres unmarked) [compound 6] | 0.94 | 1 | 0.25 | 1.11 | 0.97 | 0.99 | 1.11 | 1.08 | 0.95 | 1.03 |  |  |  |  |  |  |  |  |  |  | fold changes relative to vehicle control ([7]; HeLa, protein ACADM (HYPOTHETICAL PROTEIN DKFZP686M24262)): 1.43
7 | NCCCNc1ccc(C(=O)NC(CCC(=O)O)C(=O)O)cc1 (centres unmarked) [compound 7] | 0.99 | 0.97 | 0.94 | 1.21 | 0.84 | 0.96 | 1.12 | 0.81 | 0.98 | 1.06 |  |  |  |  |  |  |  |  |  |  | fold changes relative to vehicle control [7, 13]: 1.06
